The values below come from patent US9458448B2, “Manufacturing method for silica encapsulated single-enzyme nanoparticles and single-enzyme nanoparticles manufactured by means of method” (Korea University Research and Business Foundation, priority 2011, dated 2016).

Common to all, as to type: biochemical
The test system of assay [1] is α-chymotrypsin (CT), free enzyme (free CT). In words: Kinetic constants by hydrolysis of MUTMAC, free enzyme (Free-CT). The protocol:
(§1) The kinetic constants of SEEN-CT (Example 1), RM-SEEN-CT (Comparative Example 1) and free enzyme (free CT) were measured by hydrolysis of MUTMAC. The values were obtained by nonlinear regression based on the least square method.

The subject of assay [2] is α-chymotrypsin (CT), silica encapsulated single-enzyme nanoparticles SEEN-CT (Example 1). In words: Kinetic constants by hydrolysis of MUTMAC, silica encapsulated single-enzyme nanoparticles SEEN-CT (Example 1). On the procedure: Silica encapsulated single-enzyme nanoparticles were prepared using α-chymotrypsin (CT) as schematically described in FIG. 1. Specifically, the synthesis of the silica encapsulated single-enzyme nanoparticles began with dissolution of the enzyme in an aqueous solution with an organic solvent. CT was dissolved in a 10 mM Bis-Tris propane (pH 7.8) buffer containing 1% isopropanol and 2 mM calcium chloride to a concentration of 1 mg/mL. Subsequently, 2 mM AOT added to hexane of the same volume was mixed with the enzyme solution. After stirring at room temperature for 15 minutes, phase separation was conducted through centrifugation. Only the hexane layer containing the solubilized enzyme was separated and then hexane was evaporated using nitrogen gas to adjust the concentration to 1 mg/mL.
Next, a mixture solution of TMOS:hexane (1:1) was added to the enzyme-containing hexane solution with a volume of 1% thereof and stored at 4° C. for 17 hours.
Then, after storing for 1.5 hours at room temperature and adding a 200 mM sodium phosphate buffer (pH 7.8) corresponding to 2 times the volume of the hexane, the mixture was stirred at 250 rpm for 10 minutes. After phase separation occurred through centrifugation, only the aqueous solution layer was separated. Then, impurities were filtered off through a 100-nm filter.
Subsequently, the enzyme extracted into the aqueous solution phase was stored at 4° C. for 3 days. After the 3 days, unreacted TMOS and AOT molecules were removed while replacing with a 10 mM sodium phosphate buffer using an ultrafiltration device. The as-synthesized silica encapsulated single-enzyme nanoparticles were stored at 4° C. until use.
as §1

In assay [3] the test system is α-chymotrypsin (CT), reverse micelle-silica encapsulated single-enzyme nanoparticles RM-SEEN-CT (Comparative Example 1). In words: Kinetic constants by hydrolysis of MUTMAC, reverse micelle-silica encapsulated RM-SEEN-CT (Comparative Example 1). The protocol:
Hexane containing 100 mM AOT as surfactant, and a small amount of a 10 mM Bis-Tris propane buffer containing enzymes were added. The amount of the added aqueous solution was adjusted such that its molar concentration was 20 times that of AOT. Then, the enzymes were solubilized to hexane by stirring for 10 minutes. The procedure following the solubilization of the enzymes in hexane was similar to Example 1.
In the reverse micelle method, which was employed for comparison with the method for manufacturing silica encapsulated single-enzyme nanoparticles according to the present disclosure, condensation of the silica precursor proceeds faster because more water molecules are present around the enzyme. As a result, a thicker silica network will be formed and the Michaelis-Menten constant may increase.
as §1

The mark [4] stands for this setting: nonlinear regression, least square method.
Where [5] appears, read: SEEN-CT, hydrolysis of MUTMAC, nonlinear regression, least square method.
Where [6] appears, read: RM-SEEN-CT, hydrolysis of MUTMAC, nonlinear regression, least square method.

Broadly, the Km is the substrate concentration at which the rate is half of its maximum. A word on the kcat: it is the number of substrate molecules converted per active site and unit of time at saturation.

With `Cc1cc(=O)oc2cc(OC(=O)/C=C/c3ccc([N+](C)(C)C)cc3)ccc12` [MUTMAC], the kcat/Km is reported as 7.6 ± 0.2 × 10^5M^−1s^−1 in assay [1]; 6.0 ± 0.1 × 10^5M^−1s^−1 in assay [2] (SEEN-CT, hydrolysis of MUTMAC); 3.9 ± 0.1 × 10^5M^−1s^−1 in assay [3] (RM-SEEN-CT, hydrolysis of MUTMAC). For the same molecule, the results for the Km in assay [1] (setting [4]), in assay [2] (setting [5]) and in assay [3] (setting [6]) were 41.8 ± 0.1 µM, 42.4 ± 0.1 µM and 76.8 ± 3.6 µM, respectively. Besides, the kcat in assay [1] (setting [4]) amounted to 31.8 ± 0.8 s⁻¹; in assay [2] (setting [5]) it was 25.4 ± 0.1 s⁻¹; in assay [3] (setting [6]), 30.3 ± 0.8 s⁻¹. For the same molecule, the “decrease of catalytic efficiency, kcat/Km, as compared to free CT” value in assay [2] (SEEN-CT as compared to free CT) is on record as 21%; in assay [3] (RM-SEEN-CT as compared to free CT), “about 48%”.
